Bridge positions count the residues as written; N and C are the ends. Ends that are not written are not given here. I, II: the chains in the order shown.
How the values were obtained:
RET = RET phosphorylation assay in PC12-E2 cells; assay type: cell-based; conditions: PC12-E2, 10 min; ARTN 2.1 nM, artefin 12.64 μM; phosphotyrosine/total RET by immunoblot; control = 100%
Experimental: The pheochromocytoma cell line PC12-E2 (gift from Dr. Klaus Seedorf, Hagedorn Research Institute, Gentofte Municipality, Denmark) was propagated in Dulbecco’s modified Eagle’s medium (DMEM) supplemented with 5% (v/v) fetal calf serum (FCS), 10% (v/v) horse serum (HS), 1% (v/v) glutamax, 100 U/ml penicillin, and 100 μg/ml streptomycin. Cells were grown at 37°C in a humidified atmosphere containing 5% CO2.
Phosphorylation of RET was assayed in PC12-E2 cells. Cells were seeded at a density of 7 × 10^4 cells/cm^2 in 6 cm cell culture dishes (Nunc) and grown for 24 h. Cells were then grown in starvation medium (growth media with FCS switched to 1%) for 4 h before being stimulated with recombinant human ARTN (2.1 nM) or artefin (12.64 μM) for 10 min. Non-stimulated cells served as a control. Cell lysates were separated by SDS-polyacrylamide gel electrophoresis (SDS-PAGE) and transferred to an Immobilon-P membrane (Millipore, Billerica, MA, United States). Membranes were stained with mouse anti-phosphotyrosine antibody (BD Transduction Lab, New York City, NY, United States; 1:500) or RET (goat anti-mouse antibody, R&D systems, 1:500), followed by incubation with HRP-conjugated anti-mouse IgG. […] RET phosphorylation was determined as the ratio between phosphorylated and total RET. […]

[1] = test system: FGFR; cerebellar granule neurons (CGNs); experiment: Neurite outgrowth in CGNs transfected with dominant negative FGFR (dnFGFR); assay type: cell-based, Wistar rat; conditions: 24 h, ARTN 0.21 nM or artefin 1.4 μM
Experimental: Cerebellar granule neurons (CGNs) were prepared from 7-day-old Wistar rat pups (Charles River Laboratories, Sulzfeld, Germany) as previously described ([Schousboe et al., 1989]). Briefly, pups were decapitated, and the cerebellum was removed and cleared from blood vessels and meninges in ice-cold modified Krebs-Ringer buffer. The cerebellum was dissociated by chopping and trypsinization. Cells were washed in Krebs-Ringer buffer containing DNAse I (Sigma, St. Louis, MO, United States) and soybean trypsin inhibitor (Sigma) to stop trypsinization, and the remaining tissue pieces were pelleted by centrifugation. […]
To estimate neurite outgrowth, neurons were fixated 24 h after stimulation and stained with rabbit anti-growth-associated-protein-43 (GAP-43) antibody (Chemicon International, Inc., Temecula, CA, United States) or anti-GFP antibody (for transfection experiment) overnight at 4°C followed by incubation with secondary Alexa-conjugated goat anti-rabbit antibodies (Invitrogen, Taastrup, Denmark). In case of experiments with plasmid transfection, the transfection efficiency was ca. 20% of total cells and the neurite outgrowth was evaluated only in GFP-positive, i.e., transfected, cells. […]

## I: RSPHDLSLASLLGAGKK-NH2 / II: RSPHDLSLASLLGAGK / III: RSPHDLSLASLLGAG / IV: RSPHDLSLASLLGAG (amide I:16-IV:C, I:17-II:C, II:16-III:C; C-terminus assumed) [artefin]
RET
  RET phosphorylation compared to unstimulated control: ~500%
[1]
  neurite outgrowth effect in CGNs expressing dnFGFR: abolished in CGNs expressing dnFGFR

B1: recombinant human Artemin (ARTN) (ligand, UniProt Q5T4W7 108-220, looked up)
chain: AGGPGSRARAAGARGCRLRSQLVPVRALGLGHRSDELVRFRFCSGSCRRARSPHDLSLASLLGAGALRPPPGSRPVSQPCCRPTRYEAVSFMDVNSTWRTVDRLSATACGCLG
notes: Artemin (ARTN), human, UniProt D3DPX9; source: bought: R&D Systems
RET
  RET phosphorylation compared to unstimulated control: ~600%
[1]
  neurite outgrowth effect in CGNs expressing dnFGFR: abolished in CGNs expressing dnFGFR
